ChEMBL document CHEMBL5303573, “Mapping human microbiome drug metabolism by gut bacteria and their genes” (Nature, 2019)

Experiments:
[1] = victivallis vadensis, 12 h, 2 µM
Description: The drug is tested on Victivallis vadensis strain: ATCC BAA-548 for biotransformation. The drug concentrations were measured before and after a 12-h incubation by liquid-chromatography-coupled mass spectrometry (LC–MS)

[2] = The drug is tested on Bacteroides ovatus strain: ATCC8483 for biotransformation. The drug concentrations were measured before and after a 12-h incubation by liquid-chromatography-coupled mass spectrometry (LC–MS); conditions: 2 µM
[3] = The drug is tested on Clostridium sp. strain: fecal isolate for biotransformation. The drug concentrations were measured before and after a 12-h incubation by liquid-chromatography-coupled mass spectrometry (LC–MS); conditions: 2 µM
[4] = The drug is tested on Alistipes indistinctus strain: DSM22520 for biotransformation. The drug concentrations were measured before and after a 12-h incubation by liquid-chromatography-coupled mass spectrometry (LC–MS); conditions: 2 µM
[5] = The drug is tested on Bacteroides cellulosilyticus strain: DSM14838 for biotransformation. The drug concentrations were measured before and after a 12-h incubation by liquid-chromatography-coupled mass spectrometry (LC–MS); conditions: 2 µM
[6] = The drug is tested on Edwardsiella tarda strain: ATCC23685 for biotransformation. The drug concentrations were measured before and after a 12-h incubation by liquid-chromatography-coupled mass spectrometry (LC–MS); conditions: 2 µM
[7] = The drug is tested on Parabacteroides merdae strain: ATCC43184 for biotransformation. The drug concentrations were measured before and after a 12-h incubation by liquid-chromatography-coupled mass spectrometry (LC–MS); conditions: 2 µM
[8] = The drug is tested on Bacteroides uniformis strain: ATCC8492 for biotransformation. The drug concentrations were measured before and after a 12-h incubation by liquid-chromatography-coupled mass spectrometry (LC–MS); conditions: 2 µM
[9] = bacteroides fragilis, 12 h, 2 µM
Description: The drug is tested on Bacteroides fragilis strain: NCTC 9343 for biotransformation. The drug concentrations were measured before and after a 12-h incubation by liquid-chromatography-coupled mass spectrometry (LC–MS)

[10] = bacteroides fragilis, 12 h, 2 µM; remark: listed apart in the source
Description: The drug is tested on Bacteroides fragilis strain: DS-208 for biotransformation. The drug concentrations were measured before and after a 12-h incubation by liquid-chromatography-coupled mass spectrometry (LC–MS)

[11] = The drug is tested on Eubacterium rectale strain: ATCC33656 for biotransformation. The drug concentrations were measured before and after a 12-h incubation by liquid-chromatography-coupled mass spectrometry (LC–MS); conditions: agathobacter rectalis, 2 µM
[12] = The drug is tested on Odoribacter splanchnicus strain: fecal isolate for biotransformation. The drug concentrations were measured before and after a 12-h incubation by liquid-chromatography-coupled mass spectrometry (LC–MS); conditions: 2 µM
[13] = The drug is tested on Bacteroides fragilis strain: ATCC43859 for biotransformation. The drug concentrations were measured before and after a 12-h incubation by liquid-chromatography-coupled mass spectrometry (LC–MS); conditions: 2 µM
[14] = The drug is tested on Bacteroides xylanisolvens strain: DSM18836 for biotransformation. The drug concentrations were measured before and after a 12-h incubation by liquid-chromatography-coupled mass spectrometry (LC–MS); conditions: 2 µM
[15] = The drug is tested on Bacteroides fragilis strain: HMW615 for biotransformation. The drug concentrations were measured before and after a 12-h incubation by liquid-chromatography-coupled mass spectrometry (LC–MS); conditions: 2 µM
[16] = bacteroides eggerthii, 12 h, 2 µM
Description: The drug is tested on Bacteroides eggerthii strain: DSM20697 for biotransformation. The drug concentrations were measured before and after a 12-h incubation by liquid-chromatography-coupled mass spectrometry (LC–MS)

[17] = The drug is tested on Bifidobacterium breve strain: DSM20213 for biotransformation. The drug concentrations were measured before and after a 12-h incubation by liquid-chromatography-coupled mass spectrometry (LC–MS); conditions: 2 µM
[18] = The drug is tested on Eggerthella lenta strain: ATCC25559 for biotransformation. The drug concentrations were measured before and after a 12-h incubation by liquid-chromatography-coupled mass spectrometry (LC–MS); conditions: 2 µM
[19] = The drug is tested on Bacteroides vulgatus strain: ATCC8482 for biotransformation. The drug concentrations were measured before and after a 12-h incubation by liquid-chromatography-coupled mass spectrometry (LC–MS); conditions: phocaeicola vulgatus, 2 µM
[20] = anaerostipes sp., 12 h, 2 µM
Description: The drug is tested on Anaerostipes sp. strain: fecal isolate for biotransformation. The drug concentrations were measured before and after a 12-h incubation by liquid-chromatography-coupled mass spectrometry (LC–MS)

| SMILES | Bacterial Biotransformation [1] | Bacterial Biotransformation [2] | Bacterial Biotransformation [3] | Bacterial Biotransformation [4] | Bacterial Biotransformation [5] | Bacterial Biotransformation [6] | Bacterial Biotransformation [7] | Bacterial Biotransformation [8] | Bacterial Biotransformation [9] | Bacterial Biotransformation [10] | Bacterial Biotransformation [11] | Bacterial Biotransformation [12] | Bacterial Biotransformation [13] | Bacterial Biotransformation [14] | Bacterial Biotransformation [15] | Bacterial Biotransformation [16] | Bacterial Biotransformation [17] | Bacterial Biotransformation [18] | Bacterial Biotransformation [19] | Bacterial Biotransformation [20] |
| --- | --- | --- | --- | --- | --- | --- | --- | --- | --- | --- | --- | --- | --- | --- | --- | --- | --- | --- | --- | --- |
| C#C[C@]1(O)CC[C@H]2[C@@H]3CCC4=Cc5oncc5C[C@]4(C)[C@H]3CC[C@@]21C [DANAZOL] | Compound metabolized | Compound metabolized | Compound metabolized | Compound metabolized | Compound metabolized | Compound metabolized | Compound metabolized | Compound metabolized | Compound metabolized | Compound metabolized | Compound metabolized | Compound metabolized | Compound metabolized | Compound metabolized | Compound metabolized | Compound metabolized | Compound metabolized | Compound metabolized | Compound metabolized | Compound metabolized |
| CC(=O)OCC(=O)[C@@]12N=C(C)O[C@@H]1C[C@H]1[C@@H]3CCC4=CC(=O)C=C[C@]4(C)[C@H]3[C@@H](O)C[C@@]12C [DEFLAZACORT] | Compound metabolized | Compound metabolized | Compound metabolized | Compound metabolized | Compound metabolized | Compound metabolized | Compound metabolized | Compound metabolized | Compound metabolized | Compound metabolized | Compound metabolized | Compound metabolized | Compound metabolized | Compound metabolized | Compound metabolized | Compound metabolized | Compound metabolized | Compound metabolized | Compound metabolized | Compound metabolized |
| CC(=O)Nc1ccc(OC(C)=O)cc1 [DIACETAMATE] | Compound metabolized | Compound metabolized | Compound NOT metabolized | Compound metabolized | Compound metabolized | Compound metabolized | Compound metabolized | Compound metabolized | Compound metabolized | Compound metabolized | Compound metabolized | Compound metabolized | Compound metabolized | Compound metabolized | Compound metabolized | Compound metabolized | Compound metabolized | Compound metabolized | Compound metabolized | Compound metabolized |
| CCN(CC)C(=O)/C(C#N)=C/c1cc(O)c(O)c([N+](=O)[O-])c1 [ENTACAPONE] | Compound metabolized | Compound metabolized | Compound metabolized | Compound metabolized | Compound metabolized | Compound metabolized | Compound metabolized | Compound metabolized | Compound metabolized | Compound metabolized | Compound metabolized | Compound metabolized | Compound metabolized | Compound metabolized | Compound metabolized | Compound metabolized | Compound metabolized | Compound metabolized | Compound metabolized | Compound metabolized |
| CCOc1ccc2nc(S(N)(=O)=O)sc2c1 [ETHOXZOLAMIDE] | Compound metabolized | Compound metabolized | Compound metabolized | Compound metabolized | Compound metabolized | Compound metabolized | Compound metabolized | Compound metabolized | Compound metabolized | Compound NOT metabolized | Compound metabolized | Compound metabolized | Compound NOT metabolized | Compound metabolized | Compound NOT metabolized | Compound metabolized | Compound metabolized | Compound metabolized | Compound NOT metabolized | Compound metabolized |
| CC(Oc1c(Cl)cccc1Cl)C1=NCCN1 (stereo not given) [LOFEXIDINE] | Compound metabolized | Compound NOT metabolized | Compound metabolized | Compound metabolized | Compound metabolized | Compound metabolized | Compound metabolized | Compound metabolized | Compound metabolized | Compound NOT metabolized | Compound metabolized | Compound metabolized | Compound metabolized | Compound NOT metabolized | Compound NOT metabolized | Compound metabolized | Compound metabolized | Compound metabolized | Compound metabolized | Compound metabolized |
| CC[C@@H](CO)NC(=O)[C@@H]1C=C2c3cccc4c3c(cn4C)C[C@H]2N(C)C1.O=C(O)/C=C\C(=O)O [METHYSERGIDE MALEATE] | Compound metabolized | Compound metabolized | Compound metabolized | Compound metabolized | Compound metabolized | Compound metabolized | Compound metabolized | Compound metabolized | Compound metabolized | Compound metabolized | Compound metabolized | Compound metabolized | Compound NOT metabolized | Compound metabolized | Compound NOT metabolized | Compound metabolized | Compound metabolized | Compound metabolized | Compound metabolized | Compound metabolized |
| COc1c(C)c2c(c(O)c1C/C=C(\C)CCC(=O)OCCN1CCOCC1)C(=O)OC2 [MYCOPHENOLATE MOFETIL] | Compound metabolized | Compound metabolized | Compound metabolized | Compound metabolized | Compound metabolized | Compound metabolized | Compound metabolized | Compound metabolized | Compound metabolized | Compound metabolized | Compound metabolized | Compound metabolized | Compound metabolized | Compound metabolized | Compound metabolized | Compound metabolized | Compound metabolized | Compound metabolized | Compound metabolized | Compound metabolized |
